Key:
[1] = Inhibition of HDAC in human HeLa cell nuclear extracts using (Boc-Lys(Ac)-AMC as substrate preincubated for 5 mins followed by substrate addition measured after 30 mins by fluorescence assay; type: cell-based
MOLT-4 = experiment: Antiproliferative activity against human MOLT4 cells after 48 hrs by MTT assay; type: functional, cell-based; details: MOLT-4, 48 h
PC-3 = experiment: Antiproliferative activity against human PC3 cells after 48 hrs by MTT assay; type: functional, cell-based; details: PC-3, 48 h
HEL = experiment: Antiproliferative activity against human HEL cells after 48 hrs by MTT assay; type: functional, cell-based
HeLa = experiment: Antiproliferative activity against human HeLa cells after 48 hrs by MTT assay; type: functional, cell-based
K562 = experiment: Antiproliferative activity against human K562 cells after 48 hrs by MTT assay; type: functional, cell-based; details: K562, 48 h
[2] = target: T1, Protein deacetylase HDAC6 (Homo sapiens, UniProt Q9UBN7); experiment: Inhibition of HDAC6 (unknown origin) using Ac-Leu-GlyLys(Ac)-AMC as substrate preincubated for 5 mins followed by substrate addition measured after 30 mins by fluorescence assay
T1 sequence (Q9UBN7 whole entry): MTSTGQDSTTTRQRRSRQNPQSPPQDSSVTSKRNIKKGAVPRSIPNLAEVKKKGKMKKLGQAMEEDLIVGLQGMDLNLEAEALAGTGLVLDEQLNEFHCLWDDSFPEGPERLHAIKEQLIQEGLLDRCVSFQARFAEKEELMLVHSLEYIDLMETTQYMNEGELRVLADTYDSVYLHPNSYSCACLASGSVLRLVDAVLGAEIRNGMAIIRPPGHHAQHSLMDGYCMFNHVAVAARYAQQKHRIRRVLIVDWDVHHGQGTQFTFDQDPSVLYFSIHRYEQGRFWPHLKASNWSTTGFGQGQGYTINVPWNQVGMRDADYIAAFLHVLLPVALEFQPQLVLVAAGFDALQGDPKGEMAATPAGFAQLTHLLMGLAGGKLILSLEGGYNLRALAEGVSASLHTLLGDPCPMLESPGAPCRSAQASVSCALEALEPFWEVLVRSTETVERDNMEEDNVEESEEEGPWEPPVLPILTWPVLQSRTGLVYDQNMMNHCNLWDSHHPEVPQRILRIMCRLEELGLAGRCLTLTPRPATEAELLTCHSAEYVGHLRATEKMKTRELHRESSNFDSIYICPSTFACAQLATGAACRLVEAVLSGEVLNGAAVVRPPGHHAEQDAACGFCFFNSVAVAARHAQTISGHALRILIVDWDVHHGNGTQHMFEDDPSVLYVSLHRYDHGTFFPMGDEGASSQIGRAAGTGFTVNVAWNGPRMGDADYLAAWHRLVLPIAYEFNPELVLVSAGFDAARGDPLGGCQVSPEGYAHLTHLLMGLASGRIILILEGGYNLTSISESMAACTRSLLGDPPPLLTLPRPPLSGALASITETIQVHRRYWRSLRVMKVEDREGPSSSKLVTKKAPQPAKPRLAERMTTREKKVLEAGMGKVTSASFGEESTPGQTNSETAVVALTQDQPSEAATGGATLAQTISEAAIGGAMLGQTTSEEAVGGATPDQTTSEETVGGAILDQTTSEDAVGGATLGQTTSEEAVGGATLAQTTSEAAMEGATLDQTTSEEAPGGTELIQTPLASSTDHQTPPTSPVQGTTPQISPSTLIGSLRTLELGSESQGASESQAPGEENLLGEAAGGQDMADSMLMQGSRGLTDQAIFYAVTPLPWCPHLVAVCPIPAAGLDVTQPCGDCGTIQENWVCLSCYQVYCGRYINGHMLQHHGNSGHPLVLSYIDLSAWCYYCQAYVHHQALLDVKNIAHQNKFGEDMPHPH

Histone deacetylase 2 = Histone deacetylase 2 (Homo sapiens, UniProt Q92769); experiment: Inhibition of HDAC2 (unknown origin) using Ac-Leu-GlyLys(Ac)-AMC as substrate preincubated for 5 mins followed by substrate addition measured after 30 mins by fluorescence assay
Histone deacetylase 3 = Histone deacetylase 3 (Homo sapiens, UniProt O15379); experiment: Inhibition of HDAC3 (unknown origin) using Ac-Leu-GlyLys(Ac)-AMC as substrate preincubated for 5 mins followed by substrate addition measured after 30 mins by fluorescence assay
Histone deacetylase 1 = Histone deacetylase 1 (Homo sapiens, UniProt Q13547); experiment: Inhibition of HDAC1 (unknown origin) using Ac-Leu-GlyLys(Ac)-AMC as substrate preincubated for 5 mins followed by substrate addition measured after 30 mins by fluorescence assay
Histone deacetylase 1, sequence (Q13547 whole entry): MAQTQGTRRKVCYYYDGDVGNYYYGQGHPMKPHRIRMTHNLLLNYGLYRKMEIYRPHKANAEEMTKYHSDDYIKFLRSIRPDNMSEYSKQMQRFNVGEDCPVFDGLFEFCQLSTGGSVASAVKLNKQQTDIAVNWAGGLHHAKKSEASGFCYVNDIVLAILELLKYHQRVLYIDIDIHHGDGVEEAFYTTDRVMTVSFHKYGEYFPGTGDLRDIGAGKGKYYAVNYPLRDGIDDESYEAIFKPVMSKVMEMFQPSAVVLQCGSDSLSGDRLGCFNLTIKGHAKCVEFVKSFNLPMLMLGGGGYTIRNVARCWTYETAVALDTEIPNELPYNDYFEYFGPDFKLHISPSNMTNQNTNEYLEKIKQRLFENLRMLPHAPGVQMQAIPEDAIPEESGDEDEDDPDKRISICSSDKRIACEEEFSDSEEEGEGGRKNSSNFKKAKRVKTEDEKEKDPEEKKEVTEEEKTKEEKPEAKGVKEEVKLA

Histone deacetylase 2, sequence (Q92769 whole entry): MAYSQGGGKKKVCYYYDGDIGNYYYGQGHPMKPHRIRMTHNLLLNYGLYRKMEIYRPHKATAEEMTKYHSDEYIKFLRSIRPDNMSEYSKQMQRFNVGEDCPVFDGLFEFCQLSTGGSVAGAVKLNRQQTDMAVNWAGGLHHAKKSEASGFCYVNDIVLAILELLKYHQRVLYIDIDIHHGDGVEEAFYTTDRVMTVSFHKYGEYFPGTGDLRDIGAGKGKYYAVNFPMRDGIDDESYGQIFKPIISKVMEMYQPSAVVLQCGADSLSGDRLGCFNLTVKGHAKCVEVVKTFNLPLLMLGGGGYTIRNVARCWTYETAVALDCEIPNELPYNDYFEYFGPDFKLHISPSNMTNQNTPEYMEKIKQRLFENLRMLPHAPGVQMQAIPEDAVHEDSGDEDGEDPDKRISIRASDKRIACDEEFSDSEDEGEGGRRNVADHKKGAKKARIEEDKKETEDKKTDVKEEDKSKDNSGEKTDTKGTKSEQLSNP
Histone deacetylase 3, sequence (O15379 whole entry): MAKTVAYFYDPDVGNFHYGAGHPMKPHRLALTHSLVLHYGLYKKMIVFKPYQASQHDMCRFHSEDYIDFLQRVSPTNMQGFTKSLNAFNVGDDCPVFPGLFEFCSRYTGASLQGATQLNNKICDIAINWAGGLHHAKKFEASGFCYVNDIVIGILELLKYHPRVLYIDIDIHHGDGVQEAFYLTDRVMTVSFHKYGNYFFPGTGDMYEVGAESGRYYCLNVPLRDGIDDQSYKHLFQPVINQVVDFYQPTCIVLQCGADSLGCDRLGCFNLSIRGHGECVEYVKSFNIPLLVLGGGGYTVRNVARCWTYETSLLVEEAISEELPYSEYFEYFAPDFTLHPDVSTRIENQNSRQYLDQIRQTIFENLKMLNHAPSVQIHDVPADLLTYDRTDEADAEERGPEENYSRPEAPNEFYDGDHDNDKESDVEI

SMILES	IC50 [1]	further results
COc1cc(/C=C/C(=O)NO)ccc1OC[C@H](Cc1c[nH]c2ccccc12)NC(=O)c1ccccc1[N+](=O)[O-]	0.0757 µM	–
COc1cc(/C=C/C(=O)NO)ccc1OC[C@H](Cc1c[nH]c2ccccc12)NC(=O)c1ccccc1F	0.0765 µM	–
COc1cc(/C=C/C(=O)NO)ccc1OC[C@H](Cc1c[nH]c2ccccc12)NC(=O)c1ccc(Cl)cc1Cl	0.095 µM	–
COc1cc(/C=C/C(=O)NO)ccc1OC[C@H](Cc1c[nH]c2ccccc12)NC(=O)c1ccc([N+](=O)[O-])cc1	0.0607 µM	–
COc1cc(/C=C/C(=O)NO)ccc1OC[C@H](Cc1c[nH]c2ccccc12)NC(=O)c1ccccc1C	0.102 µM	–
COc1cc(/C=C/C(=O)NO)ccc1OC[C@H](Cc1c[nH]c2ccccc12)NC(=O)c1cccc(F)c1	0.06 µM	–
COc1cc(/C=C/C(=O)NO)ccc1OC[C@H](Cc1c[nH]c2ccccc12)NC(=O)c1ccccc1Br	0.0622 µM	–
COc1cc(/C=C/C(=O)NO)ccc1OC[C@H](Cc1c[nH]c2ccccc12)NC(=O)Cc1ccccc1	0.0548 µM	–
COc1cc(/C=C/C(=O)NO)ccc1OC[C@H](Cc1c[nH]c2ccccc12)NC(=O)c1ccccc1OC	0.06 µM	–
COc1cc(/C=C/C(=O)NO)ccc1OC[C@H](Cc1c[nH]c2ccccc12)NC(=O)c1ccc(Br)cc1Cl	0.114 µM	–

Compounds with a lower IC50 [1], results first:

IC50 [1]	SMILES	further results
0.0486 µM	COc1cc(/C=C/C(=O)NO)ccc1OC[C@H](Cc1c[nH]c2ccccc12)NC(=O)c1ccc(F)cc1	–
0.0242 µM	COc1cc(/C=C/C(=O)NO)ccc1OC[C@H](Cc1c[nH]c2ccccc12)NC(=O)c1cccc(C)c1	–
0.0217 µM	COc1cc(/C=C/C(=O)NO)ccc1OC[C@H](Cc1c[nH]c2ccccc12)NC(=O)CCc1ccccc1	–
0.0144 µM	COc1cc(/C=C/C(=O)NO)ccc1OC[C@H](Cc1c[nH]c2ccccc12)NC(=O)c1cccc(Cl)c1	IC50 (MOLT-4): 0.06 µM; IC50 (PC-3): 1 µM; IC50 (HEL): 0.13 µM; IC50 (HeLa): 0.43 µM; IC50 (K562): 0.28 µM
0.0096 µM	COc1ccc(C(=O)N[C@H](COc2ccc(/C=C/C(=O)NO)cc2OC)Cc2c[nH]c3ccccc23)cc1	IC50 (MOLT-4): 0.06 µM; IC50 (PC-3): 1 µM; IC50 (HEL): 0.13 µM; IC50 (HeLa): 0.43 µM; IC50 [2]: 0.087 µM; IC50 (Histone deacetylase 2): 0.0595 µM; IC50 (Histone deacetylase 3): 0.0071 µM; IC50 (K562): 0.28 µM; IC50 (Histone deacetylase 1): 0.0175 µM
0.0471 µM	COc1cc(/C=C/C(=O)NO)ccc1OC[C@H](Cc1c[nH]c2ccccc12)NC(=O)c1ccc(NC(C)=O)cc1O	–
0.0195 µM	COc1cc(/C=C/C(=O)NO)ccc1OC[C@H](Cc1c[nH]c2ccccc12)NC(=O)c1cccc(Br)c1	–
0.0121 µM	COc1cc(/C=C/C(=O)NO)ccc1OC[C@H](Cc1c[nH]c2ccccc12)NC(=O)c1ccc(Br)cc1	IC50 (MOLT-4): 0.06 µM; IC50 (PC-3): 1.25 µM; IC50 (HEL): 0.21 µM; IC50 (HeLa): 0.58 µM; IC50 (K562): 0.51 µM
0.0424 µM	COc1cc(/C=C/C(=O)NO)ccc1OC[C@H](Cc1c[nH]c2ccccc12)NC(=O)CCCc1ccccc1	–
0.0081 µM	COc1cc(/C=C/C(=O)NO)ccc1OC[C@H](Cc1c[nH]c2ccccc12)NC(=O)c1ccc(C)cc1	IC50 (MOLT-4): 0.04 µM; IC50 (PC-3): 1.09 µM; IC50 (HEL): 0.15 µM; IC50 (HeLa): 0.31 µM; IC50 (K562): 0.32 µM
0.0158 µM	COc1cc(/C=C/C(=O)NO)ccc1OC[C@H](Cc1c[nH]c2ccccc12)NC(=O)c1ccccc1	–
0.0141 µM	COc1cccc(C(=O)N[C@H](COc2ccc(/C=C/C(=O)NO)cc2OC)Cc2c[nH]c3ccccc23)c1	–
0.0233 µM	COc1cc(/C=C/C(=O)NO)ccc1OC[C@H](Cc1c[nH]c2ccccc12)NC(=O)c1ccc(Cl)cc1	–
0.0344 µM	COc1cc(/C=C/C(=O)NO)ccc1OC[C@H](Cc1c[nH]c2ccccc12)NC(=O)c1cccc([N+](=O)[O-])c1	–
0.0225 µM	COc1cc(/C=C/C(=O)NO)ccc1OC[C@H](Cc1c[nH]c2ccccc12)NC(=O)c1ccccc1Cl	–
